This passage reports GI50 and TGI results from PubChem BioAssay (NCI).

Holding throughout (experiment): NCI anticancer screen, dose series, 48 h
The test system of assay [1] is 786-0 renal.
In assay [2] the test system is COLO 205 colon.
The subject of assay [3] is EKVX NSCLC.
In assay [4] the test system is HL-60(TB) leukemia.
In assay [5] the test system is HOP-92 NSCLC.
Assay [6] has as its system NCI-H226 lung.
Assay [7] concerns NCI-H460 lung.
For assay [8], the system named is NCI-H522 lung.
The test system of assay [9] is TK-10 renal.
The subject of assay [10] is UO-31 renal.

Several values for one entry are separate records, joined by “and”; a condition that tells them apart may be missing. Equal values may be shown once.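 All cell lines were grown in 96-well plates and treated with compound for 48 hours. Abbreviation: GI50, concentration required for 50% inhibition of growth. TGI denotes the concentration required for complete inhibition of growth.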

Take `CC[C@@]1(O)C(=O)OCc2c1cc1n(c2=O)Cc2cc3c(N)c(OC)ccc3nc2-1`: the GI50 is below 0.0157 µM in [1]; 0.263 µM in assay [2]; 0.574 µM in assay [3]; 0.0266 µM in assay [4]; 0.185 µM in assay [5]; 1.77 µM in [6]. In addition, the GI50 was 0.013 µM in assay [7], 0.0434 µM in assay [8], 2.26 µM in [9] and 0.0547 µM in assay [10]. Also, the TGI in [1] is 0.0738 µM; in [2], 2.69 µM; in assay [3], above 100 µM; in assay [4] it was 0.187 µM; in [5], 1.85 µM; in assay [6] it was above 100 µM. The TGI in [7] was 0.111 µM; in [8], 1.31 µM; in [9] it was above 50 µM; in assay [10], 0.25 µM.

`O=C1/C(=C/c2ccccc2)CN(C(=O)/C=C/c2ccccc2)C/C1=C\c1ccccc1`: the TGI stood at 8.27 µM in assay [1]; 19.4 µM in [2]; 50.1 µM in assay [3]; 16.4 µM in [4]; 62.2 µM in assay [5]; 60.6 µM in [6]. The TGI in assay [7] came out at 39.3 µM; in [8], 27.7 µM; in assay [9], 65.3 µM; in assay [10], 20.6 µM.

Turning to `COc1ccc(C(=O)c2no[n+]([O-])c2C(=O)c2ccc(OC)cc2)cc1`, the GI50 was 2.62 µM in assay [1]; 1.77 µM in [2]; 7.54 µM in assay [3]; 2.08 µM in assay [4]; 1.72 µM in assay [5]; 25.8 µM in assay [6]. The GI50 was 17.2 µM in [7], 0.205 µM in [8], 1.41 µM in assay [9] and 0.588 µM in assay [10]. The TGI was 6.32 µM in assay [1]; 3.37 µM in assay [2]; 22.5 µM in assay [3]; 4.37 µM in assay [4]; 3.96 µM in assay [5]; above 64.3 µM in assay [6]. For the same compound, the TGI in [7] was 33.5 µM; in assay [8], 0.429 µM; in assay [9], 2.82 µM; in [10] it was 1.17 µM.

`O=C1c2ccccc2-n2c1nc1ccc([N+](=O)[O-])cc1c2=O`: the TGI in assay [1] is above 100 µM; in assay [2], above 100 µM; in assay [3] it was above 100 µM; in [4], 43.5 µM; in assay [5], above 100 µM; in assay [6], above 100 µM. For the same compound, the TGI in [7], in assay [8], in assay [9] and in [10] was above 100 µM in each case.

In the case of `Cc1nc2sc(C(=O)Nc3cccc4c3OCCO4)c(N)c2cc1C(C)O` (stereo not given), the GI50 in assay [1] is 5 µM; in assay [2] it was 4.27 µM; in assay [3], above 100 µM; in assay [4], 2.99 µM; in assay [5], 5.52 µM; in [6], above 100 µM. Also, the GI50 in assay [7] was 3.58 µM; in [8], 2.5 µM; in assay [9], above 100 µM; in [10], 7.3 µM. Further, the TGI in assay [1] was above 100 µM; in [2], above 100 µM; in [3], above 100 µM; in assay [4], 13 µM; in assay [5], above 100 µM; in assay [6], above 100 µM. The TGI in [7], in [8], in assay [9] and in assay [10] was above 100 µM each time.

Take `CC(=O)CC(=O)Nc1ccc(OS(N)(=O)=O)cc1`: the TGI in [1], in assay [2], in [3], in assay [4], in assay [5] and in assay [6] was above 100 µM throughout. Further, the TGI in assay [7], in [8], in assay [9] and in assay [10] was above 100 µM throughout.

For the compound `CCOC(=O)c1c(C)n(Cc2ccc(Cl)cc2Cl)c2c1cc(O)c1[nH]c(Cc3ccccc3)nc12`, the GI50 is 3.67 µM in [1]; 5.04 µM in assay [2]; 9.49 µM in assay [3]; 2.27 µM in [4]; 1.77 µM in assay [5]; 14 µM in assay [6]. Further, the GI50 in [7] was 2.71 µM; in [8], 3.2 µM; in assay [9] it was 7.07 µM; in [10], 3.75 µM. Further, the TGI stood at 13.7 µM in [1]; 30.1 µM in [2]; 22.3 µM in assay [3]; 5.38 µM in assay [4]; 4.16 µM in assay [5]; 30.9 µM in [6]. For the same compound, the TGI in [7] was determined as 6.65 µM; in assay [8] it was 15.6 µM; in [9], 29 µM; in assay [10] it was 16.6 µM.

Turning to `COc1cc(/C=C2\CC3C4CC=C5C[C@@H](N6CCCC6)CC[C@]5(C)C4CC[C@]3(C)[C@H]2OC(C)=O)ccc1OCCCn1ccnc1` (stereo not given in full), the GI50 in assay [1] is 0.369 µM; in assay [2], 0.104 µM; in assay [3] it was 1.28 µM; in assay [4] it was 0.393 µM; in assay [5], 6.09 µM; in assay [6], 10.3 µM. Also, the GI50 in assay [7] is 0.531 µM; in assay [8], 3.86 µM; in assay [9] it was 0.479 µM; in assay [10], 2.01 µM. The TGI in assay [1] is 1.38 µM; in assay [2], above 50 µM; in assay [3] it was 9.12 µM; in assay [4], 1.31 µM; in assay [5], 17.7 µM; in assay [6], 21.9 µM. Moreover, the TGI in assay [7] is above 19.2 µM; in assay [8] it was above 27.5 µM; in [9], 1.48 µM; in [10], above 50 µM.

In the case of `C=CCN=C1NC(=O)C(CC(=O)Nc2ccc([N+](=O)[O-])cc2[N+](=O)[O-])S1` (stereo not given), the TGI in assay [1], in [2], in [3], in assay [4], in assay [5] and in assay [6] was above 100 µM each time. Besides, the TGI in assay [7], in assay [8], in [9] and in [10] was above 100 µM throughout.

Regarding `CCN(CC)CCNc1ccc2nc(C)n3c4ccc(OC)cc4c(=O)c1c23`, the TGI turned out to be 7.88 µM in assay [1]; 13 µM in [2]; 13.9 µM in assay [3]; 2.96 µM in assay [4]; 20.7 µM in [5]; 7.11 µM in assay [6]. In addition, the TGI came to 2.42 µM in assay [7], 2.74 µM in assay [8], 4.75 µM in assay [9] and 16.3 µM in [10].

For the compound `CCc1n(Cc2ccc3ccccc3c2)cc[n+]1Cc1ccc2ccccc2c1`, the GI50 in assay [1] was 1.52 µM; in assay [2], 0.376 µM; in assay [3], 0.766 µM; in assay [4], 0.249 µM; in assay [5], 0.338 µM; in [6] it was 1.08 µM. For the same compound, the GI50 was 0.724 µM in assay [7], 0.303 µM in assay [8], 1.65 µM in [9] and 2.22 µM in assay [10]. The TGI in [1] turned out to be 3.04 µM; in [2], 1.73 µM; in assay [3], 5.55 µM; in assay [4], 1.17 µM; in assay [5], 1.77 µM; in assay [6] it was 3.82 µM. Also, the TGI came out at 2.15 µM in assay [7], 1.44 µM in assay [8], 3.32 µM in assay [9] and 8.86 µM in assay [10].

Regarding `COC(=O)N1C=CC2=C(C)C3Nc4ccccc4C3C(C)=C2C1` (stereo not given), the TGI in [1] is 2.16 µM; in [2] it was 6.66 µM; in assay [3] it was above 100 µM; in [4], 11.9 µM; in [5], 10.1 µM; in assay [6], 5.1 µM. In addition, the TGI in assay [7] turned out to be 11.6 µM; in [8], 10.7 µM; in assay [9] it was 7.24 µM; in assay [10], 3.88 µM.

Regarding `O=C1C=CC(=O)N1c1ccc2ccccc2c1`, the GI50 is 17.2 µM in [1]; 2.01 µM in assay [2]; 17.9 µM in assay [3]; 7.74 µM in assay [4]; 7.59 µM in assay [5]; 16.8 µM in assay [6]. Also, the GI50 in [7] is 17.5 µM; in assay [8], 1.74 µM; in [9], 6.4 µM; in assay [10], 12.4 µM. For the same compound, the TGI came out at 31.6 µM in assay [1]; 4.22 µM in [2]; 39.6 µM in [3]; 33.5 µM in assay [4]; 22.2 µM in assay [5]; 33.3 µM in assay [6]. For the same compound, the TGI came out at 37.9 µM in [7], 3.42 µM in [8], 19.1 µM in [9] and 25.1 µM in [10].

For `COc1cc2c(c(OC)c1OC)[C@@H]1CCCCC[C@@H]1CCC2=O`, the TGI in assay [1] was above 100 µM; in assay [2], above 77.3 µM; in assay [3] it was above 100 µM; in assay [4], above 63.4 µM; in [5] it was above 100 µM; in assay [6], above 100 µM. The TGI in assay [7], in [8], in assay [9] and in [10] was above 100 µM in each case.

Turning to `O=C(Nc1ccc(Br)cc1)c1cc(Br)ccc1O`, the GI50 is 0.504 µM and 1.4 µM in [1]; 1.66 µM and 1.71 µM in assay [2]; 0.788 µM and 0.75 µM in [3]; 0.408 µM and 1.12 µM in [4]; 0.218 µM and 0.332 µM in assay [5]; 0.747 µM and 0.729 µM in assay [6]. Besides, the GI50 was 0.389 µM and 0.617 µM in assay [7]; 0.263 µM and 0.854 µM in assay [8]; 0.379 µM and 1.56 µM in assay [9]; 0.247 µM and 0.767 µM in assay [10]. The TGI in assay [1] is 2.84 µM and 4.74 µM; in assay [2], 3.1 µM and 3.25 µM; in [3], 36.6 µM and > 20.1 µM; in assay [4], 4.54 µM and 3.8 µM; in assay [5] it was 0.698 µM and 2.88 µM; in assay [6], 4.52 µM and 4.03 µM. For the same compound, the TGI was 4.96 µM and 10.7 µM in assay [7]; 4.81 µM and 22.2 µM in assay [8]; above 22.1 µM in [9]; 2.16 µM and 9.78 µM in [10].

Take `COc1cc(Br)c(/C=N/N=C(\N)NO)cc1OC`: the TGI was 92.8 µM in assay [1]; 25.6 µM in [2]; above 100 µM in assay [3]; 52.6 µM in [4]; 90.5 µM in assay [5]; 31.5 µM in assay [6]. Besides, the TGI in assay [7] is 27.2 µM; in assay [8], 37.5 µM; in assay [9], above 100 µM; in assay [10], above 100 µM.

As for `CCOC(=O)c1ccc(N[C@@H]2c3cc4c(cc3C(c3cc(OC)c(O)c(OC)c3)[C@H]3C(=O)OCC32)OCO4)cc1` (stereo not given in full), the GI50 was 0.199 µM and 0.492 µM in [1]; 0.833 µM in assay [2]; 0.591 µM in [3]; 0.0114 µM in assay [4]; 0.35 µM in [5]; 0.0385 µM in assay [7]. In addition, the GI50 in assay [8] is 0.395 µM and 1.28 µM; in assay [9], 5 µM; in [10], 0.394 µM. For the same compound, the TGI in assay [1] is 0.66 µM and 2.12 µM; in [2] it was 7.68 µM; in [3], 9.17 µM; in assay [4] it was 0.282 µM and 0.889 µM; in assay [6] it was 0.719 µM and 1.95 µM; in assay [7], 1.33 µM. Besides, the TGI in assay [8] was 4.98 µM; in assay [9] it was 11.3 µM; in assay [10], 0.982 µM and 3.4 µM.

For `CC(C)C[C@H](NC(=O)[C@@H](N)Cc1cccc2ccccc12)B(O)O`, the GI50 in [1] is 0.207 µM; in assay [2], 1.92 µM; in [3] it was 1.23 µM and 0.167 µM; in [4] it was 0.0789 µM and 0.0291 µM; in [5], 0.0288 µM; in [7] it was 1.36 µM. Besides, the values for the GI50 in assay [9] and in assay [10] were 0.439 µM and 0.739 µM, respectively. Further, the TGI is 5 µM and 3.13 µM in assay [3]; 50 µM and > 100 µM in [4]; below 0.0186 µM in assay [6]; 0.741 µM in assay [8].
